From patent US4696929A, “Derivative of piperazine having anti-allergic and anti-inflammatory action” (Taiho Pharmaceutical Company, Limited, priority 1984, dated 1987)

How the values were obtained:
5-lipoxygenase = biological target: T1, 5-lipoxygenase (Cavia porcellus, UniProt A0A286X958); assay: Assay of 5-lipoxygenase (PMNL cytosol fraction, 5-HETE formation); format: biochemical, guinea pig (male Hartley strain); conditions: 3 min pre-incubation, then [1-14C]arachidonic acid 5 min, 37° C., 1% DMSO, 5-HETE counted
T1 construct: 105,000×g for 60 min to obtain the cytosol fraction; endogenous in cells; host or cells: casein-elicited peritoneal polymorphonuclear leukocytes of male Hartley guinea pigs, 105,000×g cytosol fraction
T1 sequence (A0A286X958 1-674): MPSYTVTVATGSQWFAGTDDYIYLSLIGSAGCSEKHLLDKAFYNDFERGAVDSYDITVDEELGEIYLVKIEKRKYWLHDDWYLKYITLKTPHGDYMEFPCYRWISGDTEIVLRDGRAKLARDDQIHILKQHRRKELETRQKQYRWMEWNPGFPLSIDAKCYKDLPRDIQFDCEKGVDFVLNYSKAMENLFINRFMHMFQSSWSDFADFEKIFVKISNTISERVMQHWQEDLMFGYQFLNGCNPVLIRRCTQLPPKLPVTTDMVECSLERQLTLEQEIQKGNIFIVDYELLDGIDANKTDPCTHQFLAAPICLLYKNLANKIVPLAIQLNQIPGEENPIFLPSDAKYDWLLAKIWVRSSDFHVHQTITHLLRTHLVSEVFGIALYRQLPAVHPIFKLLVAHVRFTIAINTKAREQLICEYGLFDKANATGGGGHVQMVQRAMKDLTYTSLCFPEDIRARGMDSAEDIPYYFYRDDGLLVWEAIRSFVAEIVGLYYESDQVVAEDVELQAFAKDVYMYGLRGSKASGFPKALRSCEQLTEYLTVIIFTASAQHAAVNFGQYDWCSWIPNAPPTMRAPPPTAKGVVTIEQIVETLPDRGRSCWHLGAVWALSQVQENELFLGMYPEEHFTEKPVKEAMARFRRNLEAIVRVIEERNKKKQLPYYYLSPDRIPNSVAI
Method: Assay of 5-lipoxygenase […] Male Hartley strain guinea pigs weighing 580~740 g received intraperitoneal injection of 2% casein in saline (5 ml/100 g body weight). After 16~18 hr, the guinea pigs were sacrificed by bleeding from the carotid artery. Then 50 ml of Dulbecco's phosphate-buffered saline (PBS(-)) containing 5 units/ml of heparin were injected into the peritoneal cavity and peritoneal exudate was collected. The exudate was combined and filtered through 4 layers of cheese cloth, followed by centrifugation at 1,000 rpm for 10 min. Cell pellets were suspended in small amounts of PBS(-) and treated 3 volumes of 0.2% NaCl to lyse contamination red blood cells. The cells (80% or more PMNL as identified by Wright-Giemsa stain) were washed twice with buffer A (130 mM NaCl, 25 mM phosphate, pH 7.4, 1 mM EDTA). The washed cells (1×10^8 cells/ml) were resuspended in 50 mM phosphate (pH 7.4) containing 1 mM EDTA and 0.1% gelatin, sonicated and centrifuged at 10,000×g for 20 min. The supernatant solution was further centrifuged at 105,000×g for 60 min to obtain the cytosol fraction. Enzyme assays Test compounds were dissolved in dimethyl sulfoxide (DMSO), and the final concentration of DMSO was kept at 1% in each experiment. […] Each reaction was terminated by precipitating the proteins with 1 ml acetone and added 0.5 ml ice-cold saline. The pH was adjusted to about 3 with 150 μl 2N formic acid. The mixture was extracted twice with 2 ml chloroform. […] Radioactive zone of 5-HETE [5(S)-hydroxy-6,8,11,14-eicosatetraenoic acid] was detected by autoradiography, scraped from the TLC plates, and counted by a liquid scintillation counter. IC50 (50% Inhibition Concentration) value indicates the concentration to decrease the enzymatic product by 50% as compared to that of vehicle-treated control.

platelet cyclooxygenase = biological target: T2, platelet cyclooxygenase (Oryctolagus cuniculus, UniProt O97554); assay: Assay of platelet cyclooxygenase (intact washed platelets, TXB2 formation); format: cell-based, rabbit (male New Zealand White); conditions: 3 min pre-incubation, then [1-14C]arachidonic acid 5 min, 37° C., TXB2 counted
T2 construct: 1 ml of intact washed platelet suspensions were pre-incubated with test compounds; endogenous in cells; host or cells: intact washed platelets of male New Zealand White rabbits
T2 sequence (O97554 31-606): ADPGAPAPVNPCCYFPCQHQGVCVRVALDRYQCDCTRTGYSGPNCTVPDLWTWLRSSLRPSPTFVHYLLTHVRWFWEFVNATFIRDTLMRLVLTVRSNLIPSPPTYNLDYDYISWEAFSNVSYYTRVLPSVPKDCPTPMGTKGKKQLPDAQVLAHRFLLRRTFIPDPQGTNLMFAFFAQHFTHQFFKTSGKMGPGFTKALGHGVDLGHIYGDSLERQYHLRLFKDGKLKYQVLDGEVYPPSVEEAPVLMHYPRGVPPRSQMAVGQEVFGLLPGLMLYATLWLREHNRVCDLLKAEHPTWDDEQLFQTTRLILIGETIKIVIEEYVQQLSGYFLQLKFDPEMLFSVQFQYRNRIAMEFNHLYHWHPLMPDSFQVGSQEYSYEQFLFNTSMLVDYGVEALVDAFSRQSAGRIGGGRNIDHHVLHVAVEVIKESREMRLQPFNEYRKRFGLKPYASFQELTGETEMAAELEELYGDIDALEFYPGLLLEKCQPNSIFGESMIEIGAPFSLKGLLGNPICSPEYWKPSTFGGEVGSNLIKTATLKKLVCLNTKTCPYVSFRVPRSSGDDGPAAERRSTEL
Method: Assay of platelet cyclooxygenase
Preparation of washed platelet
Citrated blood (blood/3.8% sodium citrate=9:1 by volume) was obtained by heart-puncture from male New Zealand White rabbits weighing 3.21~4.75 kg and centrifuged at 1,000 rpm for 10 min. The platelet-rich plasma (the supernatant layer: PRP) was further centrifuged at 3,000 rpm for 10 min, and the resulting platelet was washed twice with buffer A (130 mM NaCl, 25 mM phosphate, pH 7.4, 1 mM EDTA). The washed platelets were resuspended in 50 mM phosphate (pH 7.4) containing 1 mM EDTA and adjusted 1×10^8 platelets/ml.
For the platelet cyclooxygenase assays, 1 ml of intact washed platelet suspensions were pre-incubated with test compounds (dissolved in DMSO) in the presence of 1 mM GSH at 37° C. for 3 min, and then the mixture was incubated with [1-^14 C]arachidonic acid (0.1 μCi) at 37° C. for 5 min. Each reaction was terminated and extracted by the addition of 3 ml of ethyl acetate/methanol/1M citric acid (30:4:1, v/v). The organic layer was evaporated under a N2 gas stream, redissolved in 30 μl of chloroform/methanol (2:1, v/v), and applied 20 μl to Silica gel TLC plates, and developed in the solvent system chloroform/methanol/acetic acid/H2 O (90:8:1:0.8, v/v). Radioactive zone of TXB2 (Thromboxane B2) was detected by autoradiography, scraped from the TLC plates, and counted by a liquid scintillation counter. IC50 value indicates the concentration to decrease the enzymatic product by 50% as compared to that of vehicle-treated control.

lipoxygenase = conditions: background art; cited from earlier work
cyclooxygenase = conditions: background art; cited from earlier work

Row | SMILES | IC50 (5-lipoxygenase) [µM] | IC50 (platelet cyclooxygenase) [µM] | lipoxygenase inhibition (in words) (lipoxygenase) | cyclooxygenase inhibition (in words) (cyclooxygenase)
1 | COc1ccc2c(c1)c(CC(=O)OC(CN1CCN(CCCO)CC1)c1ccccc1)c(C)n2C(=O)c1ccc(Cl)cc1 (stereo not shown) [Example 7, 2-{4-(3-hydroxypropyl)-1-piperazinyl}-1-phenylethyl 1-(p-clorobenzoyl)-5-methoxy-2-methyl-3-indoylacetate dimaleate] | 1.6 | 20.4 |  | 
2 | COc1ccc2c(c1)c(CC(=O)OC(CN1CCN(CCCCCCCCCCO)CC1)c1ccccc1)c(C)n2C(=O)c1ccc(Cl)cc1 (stereo not shown) [Example 12, 2-{4-(10-hydroxydecyl)-1-piperazinyl}-1-phenylethyl 1-(p-chlorobenzoyl)-5-methoxy-2-methyl-3-indoylacetate dimaleate] | 0.9 |  |  | 
3 | CC(C(=O)O)c1ccc2oc(-c3ccc(Cl)cc3)nc2c1 (stereo not drawn) [Benoxaprofen, 2-(4-chlorophenyl)-α-methyl-5-benzoxazoleacetic acid] | 24 |  | lipoxygenase-inhibiting actions | cyclooxygenase-inhibiting
4 | COc1ccc2c(c1)c(CC(=O)OC(C)CN1CCN(CCCO)CC1)c(C)n2C(=O)c1ccc(Cl)cc1 (stereo not shown) [Example 8, 2-{4-(3-hydroxypropyl)-1-piperazinyl}-1-methylethyl 1-(p-chlorobenzoyl)-5-methoxy-2-methyl-3-indoylacetate dimaleate] | 6.9 | 30.6 |  | 
5 | COc1ccc2c(c1)c(CC(=O)OC(C)(C)CN1CCN(CCCOC3CCCCO3)CC1)c(C)n2C(=O)c1ccc(Cl)cc1 (stereo not shown) [Example 13, 1-methyl-2-[4-{3-(2-tetrahydropyranyloxy)propyl}-1-piperazinyl]-2-methyl-2-propyl 1-(p-chlorobenzoyl)-5-methoxy-2-methyl-3-indoylacetate] | 4.7 | 22.3 |  | 
6 | COc1ccc2c(c1)c(CC(=O)OC(C)CN1CCN(CCCCCO)CC1)c(C)n2C(=O)c1ccc(Cl)cc1 (stereo not shown) [Example 10, 2-{4-(5-hydroxypentyl)-1-piperazinyl}-1-methylethyl 1-(p-chlorobenzoyl)-5-methoxy-2-methyl-3-indoylacetate dimaleate] | 6.2 | 22.8 |  | 
7 | COc1ccc2c(c1)c(CC(=O)OC(C)CN1CCN(CCCCCCO)CC1)c(C)n2C(=O)c1ccc(Cl)cc1 (stereo not shown) [Example 11, 2-{4-(6-hydroxyhexyl)-1-piperazinyl}-1-methylethyl 1-(p-chlorobenzoyl)-5-methoxy-2-methyl-3-indoylacetate dimaleate] | 4.7 | 41.2 |  | 
8 | COc1ccc2c(c1)c(CC(=O)OC(CN1CCN(CCO)CC1)c1ccccc1)c(C)n2C(=O)c1ccc(Cl)cc1 (stereo not shown) [Example 9, 2-{4-(2-hydroxyethyl)-1-piperazinyl}-1-phenylethyl 1-(p-chlorobenzoyl)-5-methoxy-2-methyl-3-indoylacetate dimaleate] | 1.7 | 9.2 |  | 
9 | COc1ccc2c(c1)c(CC(=O)O)c(C)n2C(=O)c1ccc(Cl)cc1 [Indomethacin] | 242 |  | does not inhibit lipoxygenase reaction | has cyclooxygenase-inhibiting action
